Data as given in US20230407374A1, “SYSTEMS AND METHODS FOR HIGH THROUGHPUT SCREENING OF MOLECULAR INTERACTIONS” (priority 2020, published 2023).

Target: short 8-mer DNA zipper (Z1: ATGTCCAT) target interaction
Test: nanoswitch-FRET dose response with blocking oligonucleotides
Type: binding
Conditions: 1 nM nanoswitches with Z1 target interaction
From the text: DNA nanoswitches were created as previously described (Koussa et al. 2015, Hansen et al. 2017). Briefly, circular ssDNA from the 7,249-nt bacteriophage M13 (New England BioLabs) was linearized by enzymatic cleavage of a single site using BtscI (New England BioLabs) and a site-specific oligonucleotide. This ssDNA scaffold was mixed with a molar excess of tiling 60-mer oligonucleotides (10:1), excluding the complementary regions for detection oligonucleotide and target interaction partners, and subjected to a temperature ramp from 90 to 20° C. at 1° C.−min-1. The detection oligonucleotides were added at 55° C. during the hybridization protocol. […]
The FRET from nanoswitches was quantified using a BioTek Neo plate reader. Specifically, the FRET emission was measured at 665 nm from […] and the non-FRET emission at 555 nm from […] using the built in monochromator-based system. The FRET ratio was then calculated as the ratio of the signal at 665 nm over 555 nm. For nanoswitch concentrations 2 nM and above, to reduce background, excitation at 540 nm was used instead and the FRET emission was measured at 680 nm.
FRET was measured in the presence of increasing concentrations of 7-mer (TGGACAT) or 8-mer ([…]) blocking oligonucleotides that bind to one side of the zipper. […]

ATGGACAT [8-mer]
Ki (95% CI by bootstrapping (150 nM, 430 nM)): 0.26 µM

TGGACAT [7-mer]
Ki (95% CI by bootstrapping (1.2 μM, 3.8 μM)): 2 µM
